Data as given in patent US12338236B2, “Benzoisothiazole and benzoisoxazole compounds for the treatment of mental disorders” (SUVEN LIFE SCIENCES LIMITED, priority 2022, dated 2025).
Where a name gives a salt, the structure may show the parent alone.

Columns and labels:
human 5-HT2A receptor = molecular target: T1, human 5-HT2A receptor (Homo sapiens, UniProt P28223); assay: Determination of Ki values at 5-HT2A receptor ([3H]-Ketanserine radioligand binding); settings: h5-HT2A, CHO-K1, [3H]-Ketanserine 1.25 nM
T1 construct: expressed in transfected cells; host or cells: CHO-K1
T1 sequence (P28223 whole entry): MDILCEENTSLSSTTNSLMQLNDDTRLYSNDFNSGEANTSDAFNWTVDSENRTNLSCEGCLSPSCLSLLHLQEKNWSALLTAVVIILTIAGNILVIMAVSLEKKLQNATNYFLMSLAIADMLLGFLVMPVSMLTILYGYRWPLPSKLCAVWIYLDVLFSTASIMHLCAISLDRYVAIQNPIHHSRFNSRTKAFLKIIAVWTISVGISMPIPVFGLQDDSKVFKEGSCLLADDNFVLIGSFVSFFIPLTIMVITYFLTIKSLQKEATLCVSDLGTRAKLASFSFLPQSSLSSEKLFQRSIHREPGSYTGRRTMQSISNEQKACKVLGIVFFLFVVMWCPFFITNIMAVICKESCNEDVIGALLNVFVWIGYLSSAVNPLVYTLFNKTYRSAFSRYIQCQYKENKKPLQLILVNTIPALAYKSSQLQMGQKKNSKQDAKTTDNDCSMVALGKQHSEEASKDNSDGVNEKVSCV
Procedure: Example-44: Determination of Ki Values at 5-HT2A Receptor
• Receptor source: Recombinant mammalian cells (CHO-K1) • Radioligand: [^3H]-Ketanserine (41.9 Ci/mmol) • Final ligand concentration: 1.25 nM • Non-specific determinant: 0.1 mM 1-Napthyl piperazine (1-NP) • Reference compound: 1-Napthyl piperazine (1-NP) • Positive control: 1-Napthyl piperazine (1-NP) Incubation conditions: Reactions were carried out in buffer with pH 7.4 containing 50 mM Tris-HCl, 4 mM CaCl2, 0.1% Ascorbic acid for 1 h at RT. The reaction was terminated by rapid vacuum filtration onto the glass fiber filters. Radioactivity trapped onto the filters was determined and compared to the control values in order to ascertain any interactions of the test compound(s) with cloned human 5-HT2A receptor binding site.

[1] = Rodent pharmacokinetic study; type: in vivo, Male Wistar rats; settings: male, Wistar, plasma, rat; for bioavailability: oral 3 mg/kg vs intravenous 1 mg/kg, read-out: F (Bioavailability)
Procedure: Example-49: Rodent Pharmacokinetic Study
Male Wistar rats (250±50 grams) were used as experimental animals. Animals were housed individually in polypropylene cages. Two days prior to study, male Wistar rats were anesthetized with isoflurane for surgical placement of jugular vein catheter. Rats were randomly divided for oral (3 mg/kg and 10 mL/kg as dose volume) and intravenous (1 mg/kg and 2.0 mL/kg as dose volume) dosing (n=3/group) and fasted overnight before oral dosing (p.o.). However, rats allocated to intravenous dosing food and water was provided ad libitum.
Intravenous formulation was prepared by using 5% Pharmasolve+45% Propylene Glycol+50% PEG 400 as vehicle. For Oral, formulation was prepared by using 0.25% Tween 80+99.75% of 1% (w/v) hydroxyethylcellulose solution as a vehicle. The dose formulations were prepared freshly on the day of dosing.
After dosing of animal, each time point a 200 μL of blood sample was collected through the jugular vein and replenished with an equivalent volume of normal saline. Collected blood sample was transferred into a labeled eppendorf tube containing 10 μL of sodium heparin (1000 IU/mL) as an anticoagulant. Typically blood samples were collected at following time points: 0.08, 0.25, 0.5, 1, 2, 4, 6, 8, and 24 h post dose. Blood was centrifuged at 4000 revolutions per minute (rpm) for 10 min. Plasma was separated and stored frozen at −80° C. until analysis. The concentrations of the test compounds were quantified in plasma by qualified LC-MS/MS method using suitable extraction technique in the calibration range around 1-2000 ng/mL in plasma. Study samples were analyzed using calibration samples in the batch and quality control samples spread across the batch.
Pharmacokinetic parameters Cmax, AUC0-t, t1/2, Clearance and Bioavailability (F) were calculated using standard non-compartmental model by using Phoenix WinNonlin 8.1 version Software package.

[2] = Rodent brain penetration study; type: in vivo, Male Wistar rats; settings: male, Wistar, brain and plasma, po; rat, 3 mg/kg, p.o. @ 1 h; read-out: Rat Brain Penetration (Cbrain/Cplasma)
Procedure: Example-50: Rodent Brain Penetration Study Male Wistar rats (260±40 g) were used as experimental animals. Three animals were housed in each cage. Animals were given water and food ad libitum throughout the experiment and maintained on a 12 h light/dark cycle. Brain penetration was determined in discrete manner in rats. One day prior to dosing day, male Wistar rats were acclimatized and randomly grouped according to their weight. At each time point (0.50, 1 and 2 h) n=3 animals were used. The test compounds were suitably preformulated and administered orally at (free base equivalent) 3 mg/kg. Blood samples were removed via cardiac puncture by using isoflurane anesthesia. The animals were sacrificed to collect brain tissue. Plasma was separated and brain samples were homogenized and stored frozen at −20° C. until analysis. The concentrations of the test compounds in plasma and brain were determined using LC-MS/MS method. The test compounds were quantified in plasma and brain homogenate by qualified LC-MS/MS method using suitable extraction technique in the calibration range of 1-2000 ng/mL. Study samples were analyzed using calibration samples in the batch and quality control samples spread across the batch. Extent of brain-plasma ratio (Cbrain/Cplasma) was calculated

[3] = tested on: amphetamine-induced hyperlocomotion; assay: Amphetamine-induced open field assay; type: in vivo, Male Wistar rats; settings: rats, 3, 10, 30 mg/kg, p.o., vs Amphetamine (2.5 mg/kg, i.p.) treated group
Procedure: Example-51: Amphetamine-Induced Open Filed Assay
Male Wistar rats of 230-250 g weight were used. The body weights of the rats were recorded. Rats were randomized according to their body weights. Animals were brought to the laboratory 1 h prior to acclimatizing to the laboratory conditions. The open field is black colored arena of 51×51×51 cm enclosed by black plastic walls of same dimensions. Rats were habituated to the open field arena for a period of 15 min. Animals were administered respective treatments (Vehicle or Example-2) 60 min prior to the trial. After 30 min, animals were challenged with amphetamine (2.5 mg/kg, i.p.) or vehicle. Then the animals were placed in open field arenas and distance traveled by […] was tracked for 15 min using Videomot software. Data was analyzed using GraphPad prism.

motor coordination = assay: Rat rotarod assay; type: in vivo; settings: rats, doses of 3 & 10 mg/kg, 60 min prior to trial
Procedure: Example-52: Rat Rotarod Assay
The rotarod test was employed to investigate the possible effect of Example-2 on motor coordination. Twenty hours prior to the test, rats were trained to remain on revolving bar (4 rpm) of the rotarod apparatus (TSE Systems; GmHb, Germany). Animals that successfully stayed on rotating rod for 60 seconds (out of 4 trials per animal) were selected for further study. […] A single trial was carried out on the next day. Animals that were able to stay on the rotating rod for 60 seconds were chosen for further study. Animals were administered Example-2 or Vehicle 60 min prior to the trial. The latency to fall from the rotating rod was noted.

SMILES	Ki (human 5-HT2A receptor) [nM]	bioavailability [1] [%]	AUC(0-t) ([1]; intravenous (bolus), 1 mg/kg) [ng·h/mL]	half-life ([1]; intravenous (bolus), 1 mg/kg) [h]	AUC(0-t) ([1]; oral (gavage), 3 mg/kg) [ng·h/mL]	Cmax ([1]; oral (gavage), 3 mg/kg) [ng/mL]	Kp at 1 h [2]	Effect on amphetamine-induced locomotion (distance traveled) [3]	Effect on motor coordination (latency to fall from rotating rod) (motor coordination)
Cc1nnc(-c2csc(OCCCN3CCN(c4nsc5ccccc45)CC3)n2)o1 [Example-2, 3-(4-{3-[4-(5-Methyl-[1,3,4]oxadiazol-2-yl)-thiazol-2-yloxy]-propyl}-piperazin-1-yl)-benzo[d]isothiazole oxalate]	0.24	46 ± 2	575 ± 60.8	1.98 ± 0.96	795 ± 34.5	724 ± 170	1.25	significant decrease in locomotion	No notable effects on motor coordination
Cc1noc(-c2csc(OCCCN3CCN(c4nsc5ccccc45)CC3)n2)n1 [compound 12, 3-(4-{3-[4-(3-Methyl-[1,2,4]oxadiazol-5-yl)-thiazol-2-yloxy]-propyl}-piperazin-1-yl)-benzo[d]isothiazole oxalate]	0.5	18 ± 4.3	467 ± 115	2.59 ± 0.49	250 ± 60	279 ± 59.2	2.09		
